# Laboratory results as given in paper PMC9014845 (Clinical cancer research : an official journal of the …, 2019).
# Columns and labels:
# [1] = Plasma pharmacokinetics; format: in vivo, human
# [2] = tested on: FGFR; assay: Blood PD biomarkers; format: in vivo, human
# [3] = tested on: FGFR; assay: Tissue biomarkers in skin and tumor biopsies; format: in vivo, human
# [4] = tested on: monkeys; assay: 4-week repeated-dose toxicity study; format: in vivo, monkey
# [5] = Allometric scaling of single dose PK data from mice, rats and monkeys; set-up: species or system human; details: allometric scaling model of single dose PK data from mice, rats, monkeys
# [6] = tested on: FGFRs 1–3; details: in vitro, ATP-competitive; cited from earlier work
# [7] = tested on: tumor models with FGFR alterations; details: several tumor models with FGFR alterations in vivo; cited from earlier work
# [8] = tested on: advanced solid tumors harboring FGFR1–3 gene alterations; assay: Tumor response according to RECIST 1.1
substance,measurement,setting,value
Debio 1347,Mean relative oral bioavailability of tablets versus capsules,"[1]; 40 mg single dose, cross-over, 90% CI 0.73–1.05, n=9",0.88
same,Time to steady-state (Ctrough),"[1]; majority of patients, once-daily dosing",during the first week of treatment
same,Time to detection in plasma,"[1]; post-first dose, majority of patients",≤ 30 min
same,Median tmax,"[1]; post-first oral dose, range 1.5–24",3 h
same,Plasma half-life (mean),"[1]; post-first oral dose, range 4.7–20.6",11.5 h
same,Mean apparent oral clearance,[1]; range 2.7–13.9,7.0 L/h
same,Hyperphosphatemia versus plasma exposure,[2]; maximum serum phosphate in cycle 1 versus plasma trough levels,correlated with Debio 1347 exposure
same,Dose at which serum phosphate confirmed target engagement,[2]; oral once daily,≥ 60 mg/day
same,Ctrough at which serum phosphate increases of 50% from baseline were achieved,"[2]; seen in about half of patients at 60 mg/day, majority at ≥80 mg/day",about 400 ng/mL
same,Plasma FGF23 change,"[2]; steady-state, without clear relationship to the dose",overall increase
same,DUSP6 mRNA expression change in tumor biopsies,"[3]; on treatment (day 8), 14 paired biopsies",a decrease in DUSP6 was observed
same,"Change of phosphorylated markers (pERK, pFRS2, pS6) in skin biopsies","[3]; predose to day 8, 31 biopsy pairs, immunohistochemistry",no clear decrease
same,Patients with DUSP6 decrease >50% who achieved a PR,[3]; tumor biopsies,two out of three
same,Highest non-severely toxic dose,[4],4 mg/kg/day
same,Predicted plasma half-life in humans,[5],9 h
same,Inhibitory concentration for FGFRs 1–3,[6],low nanomolar
same,Efficacy in tumor models,[7],effective
same,Disease stabilization among patients with confirmed FGFR fusions,"[8]; 10 patients, doses ≥60 mg/day",5 patients
same,PRs among patients with confirmed FGFR fusions,"[8]; 10 patients, doses ≥60 mg/day",3 patients
same,Patients with stable disease as best objective response,[8]; 57 evaluable,16 patients
same,Patients with stable disease showing reduced target lesion size (tumor size regressions of ≤30%),[8]; 57 evaluable,10 patients
same,Response per independent central radiological review,"[8]; one patient with cholangiocarcinoma, 110 mg, changed from partial",confirmed complete response
same,Disease control rate (DCR),[8]; overall,39%
same,Disease control rate (DCR),"[8]; patients with confirmed FGFR fusions, ≥60 mg/day",80%
same,Median treatment duration in patients with disease control,[8]; range 24–47,34 weeks
